According to US7576212B2, “Thieno[2,3-B] pyridines as potassium channel inhibitors” (Xention Limited, priority 2004, dated 2009):

How the values were obtained:
human Kv1.3 = molecular target: T1, human Kv1.3 (Homo sapiens, UniProt P22001); experiment: Kv1.3 whole cell patch electrophysiology (AutoPatch / conventional); format: cell-based; settings: 1 μM compound; cells stably transfected with human Kv1.3; whole cell mode; room temperature
T1 construct: expressed in transfected cells
Protocol: Kv1.3 Autopatch Electrophysiology Method
(§1) Cells stably transfected with cDNA for human Kv1.3 were grown in Dulbecco's Modified Eagle media (DMEM) alpha supplemented with 10% Fetal Calf Serum (FCS), 20 μl/ml penicillin (5000 U/ml) streptomycin (5000 μg/ml), 10 μl/ml [100×] glutamine, and blasticidin (7.5 μg/ml). Compounds were tested on these cells using the AutoPatch technology in whole cell mode.
The external bathing solution contained (in mM): 150 NaCl, 10 KCl, 1 MgCl2, 3 CaCl2, 10 HEPES, pH 7.4 with NaOH. Patch pipettes were filled with an electrode solution of composition (in mM): 100 K-Gluconate, 20 KCl, 1 MgCl2, 1 CaCl2, 10 HEPES, 11 EGTA, 5 ATP-Na2, 2 Glutathione pH 7.2 with KOH.
(§2) Compounds were dissolved in DMSO (100%) and made up in the external bather at a concentration of 1 μM. All experiments were conducted at room temperature (22-24° C.).
(§3) A cell suspension (10 ml), with a density of 100,000 cells/ml, was aliquoted into a 15 ml centrifuge tube and transferred to an incubator (37° C., 5% CO2) for approximately one hour before use. Following 60 min incubation, a tube was taken and centrifuged at 1000 rpm for 4 mins at room temperature. 9.5 ml supernatant was thence discarded, leaving a cell pellet at the bottom of the tube. The pellet was then resuspended using 100 μl of cold (4° C.), filtered (0.22 μm), 0.2% BSA/bather solution (0.02 g BSA/10 ml bather). The bottom of the tube was manually agitated gently until the solution became cloudy with cells. The 100 μl cell resuspension solution was then stored on the bench at 4° C. (using a Peltier-based temperature control device) until used.
(§4) A length of capillary glass (1B150F-4, WPI) was dipped into the cell suspension solution, such that ˜3 cm column of fluid was taken up by capillary action. A Ag/AgCl wire was dropped into the non-dipped end of the capillary also. The outside of the solution-filled end of the capillary was then dried and the capillary was loaded into the AutoPatch™. Borosilicate glass patch pipettes (from 1.5 mm OD, thin-walled filamented, GC150-TF capillary glass, Harvard) were pulled using a DMZ pipette puller (Zeitz Instruments), and were back-filled using the internal pipette solution, being careful that no bubbles remain at the tip or in the body of the pipette. Patch pipettes typically had resistances of 2.3-3.5 MΩ. Once filled, the pipette tip and a proportion of the shaft (˜15mm) were dipped into Sigmacote (Sigma). The recording pipette was then loaded into the AutoPatch™. Automated patch-clamping was initiated by the operator, but thereafter AutoPatch.exe continued the experiment providing that pre-set conditions and criteria were satisfied.
(§5) Whole cell patch-clamp recordings were made using the AutoPatch™ rig, which incorporated an EPC9 or EPC10 amplifier (HEKA, Germany) under control of Pulse software (v8.54 or v8.76, HEKA, Germany), a motion controller with 2 translators (Newport, UK), valve controller (VF1) and a c-level suction device all at room temperature (22-24° C.). This equipment was completely under the control of AutoPatch.exe and operator intervention was only made when there was a requirement to refill the drug reservoirs or to prevent the loss of a cell due to a technical error. Cells with an Rseries greater than 18 MΩ were discounted from the experiment.
(§6) Qualification stages prior to perfusion and drug application ensured that the observed current met the criteria for the experiment. Only those cells with an IK>400 pA were used for experiments. Cells were continuously perfused with external solution at a flow rate of 1.8-2 ml/minute. […] Online analysis of the hKv1.3 current during the application of compounds was performed by the AutoPatch™ software. Voltage-step protocols and analysis of data was performed as described for conventional electrophysiology.
Electrophysiology voltage-step protocols and analysis of data was performed as follows. Data was sampled at 5 kHz, and filtered with a −3 dB bandwidth of 2.5 kHz. […]

human Kv1.5 = molecular target: T2, human Kv1.5 (Homo sapiens, UniProt P22460); experiment: Kv1.5 whole cell patch electrophysiology (AutoPatch / conventional); format: cell-based; settings: 1 μM compound; cells stably transfected with human Kv1.5; whole cell mode; room temperature
T2 construct: expressed in transfected cells
T2 sequence (P22460 whole entry): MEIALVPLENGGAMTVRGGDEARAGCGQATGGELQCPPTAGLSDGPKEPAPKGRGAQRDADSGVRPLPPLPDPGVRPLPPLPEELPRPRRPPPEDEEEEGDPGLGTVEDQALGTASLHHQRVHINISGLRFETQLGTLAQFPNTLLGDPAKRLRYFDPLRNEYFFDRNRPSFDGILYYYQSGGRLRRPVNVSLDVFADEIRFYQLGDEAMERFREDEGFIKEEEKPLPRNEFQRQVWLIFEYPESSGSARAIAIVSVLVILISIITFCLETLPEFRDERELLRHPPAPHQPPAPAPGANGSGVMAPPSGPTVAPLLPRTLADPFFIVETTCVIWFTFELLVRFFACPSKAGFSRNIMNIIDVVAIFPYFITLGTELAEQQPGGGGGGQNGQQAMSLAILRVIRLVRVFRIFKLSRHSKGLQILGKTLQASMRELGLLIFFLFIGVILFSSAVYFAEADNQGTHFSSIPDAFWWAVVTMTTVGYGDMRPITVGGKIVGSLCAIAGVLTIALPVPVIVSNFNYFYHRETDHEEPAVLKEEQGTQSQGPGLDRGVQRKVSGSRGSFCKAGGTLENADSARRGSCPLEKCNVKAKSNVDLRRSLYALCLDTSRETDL
Protocol: Kv1.5 Autopatch Electrophysiology Method
as §1, with “Kv1.5 (in pEF6::VA-His-TOPO)” for “Kv1.3”
The external bathing solution contained (in mM): 150 NaCl, 10 KCl, 1 MgCl2, 3 CaCl2, 10 HEPES, pH 7.4 with NaOH. Patch pipettes were filled with an electrode solution of composition (in mM): 160 KCl, 0.5 MgCl2, 10 HEPES, 1 EGTA, pH 7.4 with KOH.
as §2, §3
as §4, with “(˜15 mm)” for “(˜15mm)”
as §5
as §6, with “IK>500” for “IK>400”, “hKv1.5” for “hKv1.3”
Electrophysiology voltage-step protocols and analysis of data was performed as follows. Data was sampled at 5kHz, and filtered with a −3 dB bandwidth of 2.5 kHz.
Cells were held at a voltage of −80 mV. […]

T1 sequence (P22001 whole entry): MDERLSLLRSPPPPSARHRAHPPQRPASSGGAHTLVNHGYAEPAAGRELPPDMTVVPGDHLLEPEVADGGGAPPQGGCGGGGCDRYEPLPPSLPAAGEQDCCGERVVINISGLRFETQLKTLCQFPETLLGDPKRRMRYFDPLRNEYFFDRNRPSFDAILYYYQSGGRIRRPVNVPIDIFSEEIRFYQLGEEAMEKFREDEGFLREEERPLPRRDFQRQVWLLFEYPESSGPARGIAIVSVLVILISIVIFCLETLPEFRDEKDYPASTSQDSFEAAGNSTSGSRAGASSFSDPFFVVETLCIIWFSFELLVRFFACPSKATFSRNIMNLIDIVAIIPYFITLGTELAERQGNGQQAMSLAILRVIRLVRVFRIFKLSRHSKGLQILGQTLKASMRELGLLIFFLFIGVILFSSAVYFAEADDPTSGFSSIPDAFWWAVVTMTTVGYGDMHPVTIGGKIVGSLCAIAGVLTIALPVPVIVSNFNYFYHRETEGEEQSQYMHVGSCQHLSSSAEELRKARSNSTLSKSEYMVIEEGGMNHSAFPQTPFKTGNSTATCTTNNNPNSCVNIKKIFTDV

inhibition at 1 µM (human Kv1.3) [%]	inhibition at 1 µM (human Kv1.5) [%]	SMILES
20	21	Cc1cccc(CNc2cc(N(CCO)CCO)nc3scc(-c4ccc(F)cc4)c23)n1 [Example 28, 2-[{3-(4-Fluoro-phenyl)-4-[(6-methyl-pyridin-2-ylmethyl)-amino]-thieno[2,3-b]pyridin-6-yl}-(2-hydroxy-ethyl)-amino]-ethanol]
20	94	OCCc1cc(NCc2ccccn2)c2c(-c3ccccc3)csc2n1 [Example 43, 2-{3-Phenyl-4-[(pyridin-2-ylmethyl)-amino]-thieno[2,3-b]pyridin-6-yl}-ethanol]
45	62	c1ccc(-c2csc3nccc(NCc4ccccn4)c23)cc1 [Example 35, (3-Phenyl-thieno[2,3-b]pyridin-4-yl)-pyridin-2-ylmethyl-amine]
8	82	OCC(CO)c1cc(NCc2ccccn2)c2c(-c3ccccc3)csc2n1 [Example 44, 2-{3-Phenyl-4-[(pyridin-2-ylmethyl)-amino]-thieno[2,3-b]pyridin-6-yl}-propane-1,3-diol]
71	59	Fc1ccc(-c2csc3nc(Cl)cc(NCc4ccccn4)c23)cc1 [Example 21, [6-Chloro-3-(4-fluoro-phenyl)-thieno[2,3-b]pyridin-4-yl]-pyridin-2-ylmethyl-amine]
32	20	Fc1ccc(-c2csc3nccc(NCc4ccccn4)c23)cc1 [Example 36, [3-(4-Fluoro-phenyl)-thieno[2,3-b]pyridin-4-yl]-pyridin-2-ylmethyl-amine]
62	31	Cc1cccc(CNc2cc(NCCO)nc3scc(-c4ccc(F)cc4)c23)n1 [Example 29, 2-{3-(4-Fluoro-phenyl)-4-[(6-methyl-pyridin-2-ylmethyl)-amino]-thieno[2,3-b]pyridin-6-ylamino}-ethanol]
99	93	Clc1cc(NCc2ccccn2)nc2scc(-c3ccccc3)c12 [Example 20, (4-Chloro-3-phenyl-thieno[2,3-b]pyridin-6-yl)-pyridin-2-ylmethyl-amine]
82	81	OCCN(CCO)c1cc(NCc2ccccn2)c2c(-c3ccccc3)csc2n1 [Example 25, 2-((2-Hydroxy-ethyl)-{3-phenyl-4-[(pyridin-2-ylmethyl)-amino]-thieno[2,3-b]pyridin-6-yl}-amino)-ethanol]
78	95	Cc1cccc(CNc2cc(Cl)nc3scc(-c4ccc(F)cc4)c23)n1 [Example 22, [6-Chloro-3-(4-fluoro-phenyl)-thieno[2,3-b]pyridin-4-yl]-(6-methyl-pyridin-2-ylmethyl)-amine]
30	36	Cc1cccc(CNc2ccnc3scc(-c4ccc(F)cc4)c23)n1 [Example 37, [3-(4-Fluoro-phenyl)-thieno[2,3-b]pyridin-4-yl]-(6-methyl-pyridin-2-ylmethyl)-amine]
93	79	OCCNc1cc(NCc2ccccn2)c2c(-c3ccccc3)csc2n1 [Example 24, 2-{3-Phenyl-4-[(pyridin-2-ylmethyl)-amino]-thieno[2,3-b]pyridin-6-ylamino}-ethanol]
72	88	Clc1cc(NCc2ccccn2)c2c(-c3ccccc3)csc2n1 [Example 19, (6-Chloro-3-phenyl-thieno[2,3-b]pyridin-4-yl)-pyridin-2-ylmethyl-amine]
45	91	OCCN(CCO)c1cc(NCc2ccccn2)c2c(-c3ccc(F)cc3)csc2n1 [Example 26, 2-[{3-(4-Fluoro-phenyl)-4-[(pyridin-2-ylmethyl)-amino]-thieno[2,3-b]pyridin-6-yl}-(2-hydroxy-ethyl)-amino]-ethanol]
72	55	OCCNc1cc(NCc2ccccn2)c2c(-c3ccc(F)cc3)csc2n1 [Example 27, 2-{3-(4-Fluoro-phenyl)-4-[(pyridin-2-ylmethyl)-amino]-thieno[2,3-b]pyridin-6-ylamino}-ethanol]
